Experimental data from paper PMC7906907, “Targeting STAT3 by a small molecule suppresses pancreatic cancer progression” (Oncogene, 2021).

How the values were obtained:
[1] = tested on: PAN02-luc; test: Orthotopic pancreatic cancer tumor model; format: in vivo, C57BL/6 mice; conditions: week 4, C188-9 group
Method: Fig. 7 N4 inhibits tumor growth in an orthotopic pancreatic cancer model. C57BL/6 mice were injected the tail of the pancreas with luciferase-expressing PAN02 cells (PAN02-luc) in matrigel and tumor growth was assessed (A) and quantified (B) by bioluminescent imaging weekly. Data represent the mean ± SD; *P < 0.05, **P < 0.01, ***P < 0.001, ****P < 0.0001, n.s. not significant by one-way ANOVA followed by multiple-comparison tests. (n = 5 mice per group) C After 4 weeks, mice were sacrificed and the pancreas were imaged. The tumor of pancreas were photographed (D) and weighted (E), scale bar, 0.5 cm.
Briefly, specimens of tumor tissue from xenograft models and orthotopic models were fixed with 4% paraformaldehyde solution at 4 °C overnight. […] Then, according to the manufacturer’s instructions (SK-4100; Vector laboratories), the avidin-biotin peroxidase complex was used, followed by colorimetric detection using DAB. Finally, hematoxylin was used to counterstain the sections and coverslips were mounted.
C57BL/6 mice, male, 4–6 week old were obtained from the Animal Center of East China Normal University. All animal experimental protocols were approved by the Animal Investigation Committee of the Institute of Biomedical Sciences, East China Normal University. PAN02 cells that stably expressed luciferase (PAN02-luc) were embedded in Matrigel (BD Biosciences) were injected with 5 × 10^5 in the tail of the pancreas. On the next day (day 0), the mice were subjected to bioluminescent imaging and divided into four groups according to the luciferase luminescence value. Mice were treated with intraperitoneal injection of indicated compound or drug. Tumor growth was analyzed once a week by an IVIS Imaging System (Xenogen Corporation, Alameda, CA) and end of study tumor weight was determined immediately postmortem. […] Images and measurements of bioluminescent signals were acquired and analyzed using Living Image and Xenogen software.

[2] = tested on: PAN02-luc; test: Pancreatic cancer liver metastatic mouse model; format: in vivo, C57BL/6 mice
Method: C57BL/6 mice were intrasplenically injected with luciferase-expressing PAN02 cells (PAN02-luc) in matrigel and tumor growth was assessed (A) and quantified (B) by bioluminescent imaging weekly. […] C After 4 weeks, mice were sacrificed and livers were imaged. D The body weight of C57BL/6 tumor-bearing mice were measured weekly.
C57BL/6, male, 8-week-old mice were obtained from the Animal Center of East China Normal University. All animal experimental protocols were approved by the Animal Investigation Committee of the Institute of Biomedical Sciences, East China Normal University. PAN02 cells that stably expressed luciferase (PAN02-luc) were embedded in Matrigel (BD Biosciences) and intrasplenically injected into mice. Tumors were allowed to grow for 1 week and treatment of the mice with either compound or control was started after grouping of the mice according to average bioluminescence. The IVIS Imaging System (Xenogen Corporation) was used to monitor pancreatic tumor growth and metastasis. Images and measurements of bioluminescent signals were acquired and analyzed using Living Image and Xenogen software.

[3] = biological target: His-STAT3^127-722 protein (Homo sapiens, UniProt P40763); test: Fluorescence polarization (FP) assay, STAT3-phosphopeptide interaction; format: binding; parameters: We purified amino acids 127–722 of the STAT3 protein for this assay; made in house; conditions: Supplementary Table 1; inhibition of STAT3 dimerization in FP assay; read-out: FP assay (IC50 μM)
Method: A Purified STAT3 protein was incubated with labeled phosphopeptide, 5-carboxyfluorescein-GpYLPQTV-NH2 for 1 h at 37 °C. FP signals were measured, and the data were analyzed using Graph Pad 7.0 software. […] C Different concentrations of N4 were pre-incubated with recombined STAT3 protein for 1 h, then 10 nM of labeled peptide was added for 1 h. The IC50 was calculated using Graph Pad 7.0.
The labeled phosphopeptide: 5-carboxyfluorescein-GpYLPQTV-NH2 (where pY represents phospho-Tyr) was used as the STAT3 binding probe. To evaluate the effect of compounds in inhibiting STAT3-peptide interaction, serial dilutions of the STAT3 competitors were prepared. The diluted compounds were added to the reaction mixture in 100 μl of FP buffer (50 mM HEPES, pH 7.5, 150 mM NaCl, 0.1% NP-40, and 1 mM dithiothreitol) containing 500 nM his-STAT3^127–722 protein for pre-incubation at 37 °C for 1 h. Then, 10 nM of the labeled peptide was added and incubated for 1 h. After incubation, FP was measured on a Cytation^TM 5 cell imaging multi-mode Reader (BioTek) using excitation and emission wavelengths of 480 nm and 535 nm, respectively. Each reaction was repeated two or three times. Binding or competitive parameters were calculated from a nonlinear regression using GraphPad Prism 7.0.

[4] = biological target: T1, STAT3^127–722 protein (Homo sapiens, UniProt P40763); test: Surface plasmon resonance (SPR) assay; format: binding; conditions: SPR
T1 construct: made in house
Method: Surface plasmon resonance (SPR) analysis was conducted with a Biacore T200 instrument (GE Healthcare) with CM5 sensor chip (GE Healthcare). To test N4 binding of STAT3^127–722 protein, serially diluted concentrations of N4 were injected into the flow system. Experiments were conducted using phosphate buffered saline (PBS) and the analyte was injected at the flow rate of 30 μL/min. The association time was 60 s and the dissociation time was 30 s. Since N4 was dissolved in PBS containing 5% dimethyl sulfoxide and a solvent correction assay was performed to adjust the results. STAT3^127–722 protein was immobilized on the sensor chip (CM5) using the amine-coupling method according to standard protocols. N4 or Stattic at various concentrations were injected into the flow system. […] The KD values were calculated with the kinetics and affinity analysis option of Biacore T200 plus evaluation software (version 3.0).

T1 sequence (P40763 127-722): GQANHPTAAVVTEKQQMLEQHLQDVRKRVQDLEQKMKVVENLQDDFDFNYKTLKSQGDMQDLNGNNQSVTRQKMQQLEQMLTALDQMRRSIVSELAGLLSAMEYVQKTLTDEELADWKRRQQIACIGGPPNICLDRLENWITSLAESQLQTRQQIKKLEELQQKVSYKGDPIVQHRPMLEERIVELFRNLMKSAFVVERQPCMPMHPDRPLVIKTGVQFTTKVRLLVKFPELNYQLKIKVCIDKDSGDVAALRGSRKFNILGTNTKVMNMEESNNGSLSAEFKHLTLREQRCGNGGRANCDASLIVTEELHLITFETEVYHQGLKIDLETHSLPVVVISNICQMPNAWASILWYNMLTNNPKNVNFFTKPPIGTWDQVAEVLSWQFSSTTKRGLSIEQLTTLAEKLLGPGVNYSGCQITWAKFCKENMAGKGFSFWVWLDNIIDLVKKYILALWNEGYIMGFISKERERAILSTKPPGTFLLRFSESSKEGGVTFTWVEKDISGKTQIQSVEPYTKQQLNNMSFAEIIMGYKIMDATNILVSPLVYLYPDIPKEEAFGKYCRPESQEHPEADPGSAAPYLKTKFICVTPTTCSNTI
His-STAT3^127-722 protein, sequence (P40763 127-722): as above

| Structure (SMILES) | tumor volume suppressed compared with the control group [1] [%] | all mice died by week ([2]; C188-9 group, n = 5) [week] | tumor metastasis suppressed compared with the control group ([2]; week 4, C188-9 group) [%] | IC50 [3] [µM] | Kd ([4]; STAT3^127–722 immobilized on CM5 chip, 25 °C) [µM] | Kd ([4]; value given in figure) [µM] |
| --- | --- | --- | --- | --- | --- | --- |
| COc1ccc(S(=O)(=O)Nc2cc(-c3c(O)ccc4ccccc34)c(O)c3ccccc23)cc1 [C188-9, reference compound] | 48.23 | ≤ 6 | 30.65 | – | – | – |
| O=[N+]([O-])c1ccc2c(c1)S(=O)(=O)C=C2 [Stattic, reference compound] | – | – | – | 4.99 | 9.62 | 9.62 |
